Results: patent US20160199343A1, “COMPOUNDS AND FORMULATIONS FOR THE TREATMENT OF WOUNDS” (NITTO DENKO CORPORATION, priority 2013, published 2016)

What was measured:
3T3 mouse fibroblast = assay: In vitro scratch assay; assay type: cell-based; conditions: 3000 μM in culture medium, followed up to 12 hrs post scratching, linear regression
Protocol: The compounds of Formula (1) and (1a) were also tested by means of an in vitro model of wound healing. An in vitro scratch assay was performed as was described in Nature Protocols by Liang et al., 2007. In short, 3T3 mouse fibroblast were seeded onto a fibronectin coated 6-well plate and the confluent monolayers were scratched with a 200 μl pipette tip to obtain a linear gap in the monolayer. The closure of this monolayer was then followed up to 12 hrs post scratching. In order to evaluate the effect of the compound (isosorbide, isoidide and isomannide) either 30 μM or 3000 μM of the test compound were added to the culture medium. The increased dose was applied as the model cannot be entirely related to the in vivo situation as the closure time of this model is considerably faster as the in vivo wound (<18 hrs vs. weeks, resp.). The basic medium comprised DMEM, FCS 5%, HEPES 20 mM, L-glutamine 4 mM and 1% pen/strep. Hereto either nothing or the aforementioned concentrations of test compounds were added.

[1] = system: full-thickness skin wounds; assay: Mouse full-thickness skin wound model, scar analysis by histology; assay type: in vivo; conditions: for reduction in scar index: full thickness excisional wounds in mice, same application formulation, versus control group
Protocol: The mouse model used here can be considered one of the simplest and standard murine models for investigating scar formation and wound healing.
Mice were weighed and then anaesthetized with 5% isoflurane in air for induction and then administered 2.5-3% of isoflurane in air for the remainder of the procedure. The animals were administered Tramal (Tramadol) intraperitoneally for analgesia at a 0.1 mg/kg dose. Before surgery the back of the mice was shaved and disinfected with isobetadine soap, rinsed with water and then swabbed with iodium alcohol.
The back of the mice was shaved and four full-thickness skin wounds were performed by cutting the folded skin on the back of the mice with a 7.5 mm×3 mm elliptical biopsy punch (Elliptical Excisional Instrument, Acuderm Inc.). The skin on the back was raised and folded at the level of the vertebral column by using the thumb and the index finger. The folded skin was then placed on a wood tongue depressor with the animal laying on one side and two wounds were performed through the folded skin by using an elliptical biopsy punch (Elliptical Excisional Instrument, Acuderm Inc.), resulting in four wounds on the back skin: two on the right of the vertebral column and two on the left (FIG. 9). The epidermis, the dermis and the fat tissue in the wound was carefully removed without touching other tissues. The wounds were then immediately treated with topical application of either the hydrogel or the ointment (glycerol+HEPES buffer) formulation containing the active substance (T1 and T2) or vehicle (Tv) and one wound was (Ts) left untreated (FIG. 9). The position of the wounds was randomised according to a list. The wound site was then covered with OP-Film (Somed International, the Netherlands) (FIG. 9). The borders were then fixed with cyanoacrylate glue (Loctite).
This model is identical to the excisional model above except that the wounds were closed with three sutures.
The treatment was repeated at the day 1, 2, 3 and 4 post-surgery for a total of 5 treatments in the first 5 days of healing. At each time point the mice were briefly anaesthetized with isoflurane and a new dose of ointment was injected through the film onto the wound, after which the animal was left to recover. At day 5 all films were removed.
After 14 days the mice were sacrificed under isoflurane anaesthesia by cervical dislocation to harvest the regenerated tissue. At sacrifice the mice were weighed and a gross necropsy was performed during which the following tissues are harvested:
Skin samples were also taken. The back of the mouse was carefully shaved paying careful attention to not touch the wound area. […]
The extent of scarring was measured in accordance with the procedure set out by Khorasani et al (2011). […]

S. aureus = conditions: cited from earlier work
[2] = system: infected and other superficial wounds; conditions: 120 patients, wounds treated with sugar; cited from earlier work

Compound	effect on closure speed (reduction) (3T3 mouse fibroblast) [%]	reduction in scar index [1] [%]	Scar index compared to Vehicle-treated / control group (statistics) ([1]; 1-way ANOVA with Dunnet's comparison, p<0.05)	Collagen organisation trend ([1]; mouse wounds, upon administration)	sugar solution concentration affecting complete in vitro growth of S. aureus (S. aureus) [g/100 g water]	curing rate [2] [%]
O[C@H]1CO[C@H]2[C@@H]1OC[C@@H]2O [Isoidide, 1,4:3,6-Dianhydro-D-iditol]	27	44	–	–	–	–
O[C@@H]1CO[C@H]2[C@@H]1OC[C@H]2O [Isomannide, 1,4:3,6-dianhydro-D-mannitol]	23	38	–	–	–	–
O[C@@H]1CO[C@H]2[C@@H]1OC[C@@H]2O [Isosorbide]	10	–	significantly different from Control and Vehicle	increased values	–	–
OC[C@H]1O[C@@](CO)(O[C@H]2O[C@H](CO)[C@@H](O)[C@H](O)[C@H]2O)[C@@H](O)[C@@H]1O [sugar, sucrose]	–	–	–	–	183	99.2
